Results from ChEMBL document CHEMBL3046894, “Synthesis and Herbicidal Activity of Pyrimidinyl Salicylic and Thiosalicylic Acids” (J Pestic Sci, 1996).
Active and inactive are the calls of the source. No cut-off for these calls is given here.

What was measured:
Chenopodium album [1] = experiment: Pre-emergence herbicidal activity against Chenopodium album assessed as growth inhibition at 25 g a.i/10 a; type: functional, organism-based
Gossypium hirsutum [2] = experiment: Pre-emergence phytotoxicity against Gossypium hirsutum (cotton) assessed as mortality at 6.3 g a.i/10 a; type: organism-based; settings: in vivo, other
Abutilon theophrasti [3] = experiment: Post-emergence herbicidal activity against Abutilon theophrasti (velvetleaf) assessed as mortality at 1.6 g a.i/10 a applied 11 days after germination as foliar spray; type: functional; settings: 264 h
[4] = (§1) Post-emergence phytotoxicity against Gossypium hirsutum (cotton) assessed as mortality at 6.3 g a.i/10 a applied 11 days after germination as foliar spray; type: organism-based; settings: in vivo, 6.3 g a.i/10 a
Cyperus iria [5] = experiment: Post-emergence herbicidal activity against Cyperus iria assessed as growth inhibition at 25 g a.i/10 a applied 11 days after germination as foliar spray; type: functional, organism-based
Abutilon theophrasti [6] = experiment: Post-emergence herbicidal activity against Abutilon theophrasti (velvetleaf) assessed as mortality at 6.3 g a.i/10 a applied 11 days after germination as foliar spray; type: functional; settings: 264 h
Gossypium hirsutum [7] = experiment: Post-emergence phytotoxicity against Gossypium hirsutum (cotton) assessed as mortality at 1.6 g a.i/10 a applied 11 days after germination as foliar spray; type: organism-based; settings: in vivo, other, 264 h
Ipomoea lacunosa [8] = experiment: Pre-emergence herbicidal activity against Ipomoea lacunosa assessed as mortality at 1.6 g a.i/10 a; type: functional; settings: Ipomoea lacunosa, pre-emergence
Echinochloa crus-galli [9] = experiment: Post-emergence herbicidal activity against Echinochloa crus-galli (barnyard grass) assessed as mortality at 6.3 g a.i/10 a applied 11 days after germination as foliar spray; type: functional; settings: 264 h
Digitaria sanguinalis [10] = experiment: Pre-emergence herbicidal activity against Digitaria sanguinalis (hairy crabgrass) assessed as growth inhibition at 25 g a.i/10 a; type: functional, organism-based
Amaranthus retroflexus [11] = experiment: Post-emergence herbicidal activity against Amaranthus retroflexus assessed as growth inhibition at 25 g a.i/10 a applied 11 days after germination as foliar spray; type: functional, organism-based
Amaranthus retroflexus [12] = experiment: Pre-emergence herbicidal activity against Amaranthus retroflexus assessed as growth inhibition at 25 g a.i/10 a; type: functional, organism-based
[13] = (§2) Post-emergence phytotoxicity against Zea mays (maize) assessed as mortality at 1.6 g a.i/10 a applied 11 days after germination as foliar spray; type: organism-based; settings: in vivo, 1.6 g a.i/10 a
Ipomoea lacunosa [14] = experiment: Pre-emergence herbicidal activity against Ipomoea lacunosa assessed as mortality at 6.3 g a.i/10 a; type: functional; settings: Ipomoea lacunosa, pre-emergence
Digitaria sanguinalis [15] = experiment: Post-emergence herbicidal activity against Digitaria sanguinalis (hairy crabgrass) assessed as growth inhibition at 25 g a.i/10 a applied 11 days after germination as foliar spray; type: functional, organism-based
Glycine max [16] = experiment: Pre-emergence phytotoxicity against Glycine max (soybean) assessed as mortality at 1.6 g a.i/10 a; type: organism-based; settings: in vivo, other
Echinochloa crus-galli [17] = experiment: Pre-emergence herbicidal activity against Echinochloa crus-galli (barnyard grass) assessed as mortality at 6.3 g a.i/10 a; type: functional; settings: Echinochloa crus-galli, pre-emergence
Xanthium strumarium [18] = experiment: Pre-emergence herbicidal activity against Xanthium strumarium (cocklebur) assessed as mortality at 1.6 g a.i/10 a; type: functional; settings: Xanthium strumarium, pre-emergence
Echinochloa crus-galli [19] = experiment: Post-emergence herbicidal activity against Echinochloa crus-galli (barnyard grass) assessed as growth inhibition at 25 g a.i/10 a applied 11 days after germination as foliar spray; type: functional, organism-based
Xanthium strumarium [20] = experiment: Pre-emergence herbicidal activity against Xanthium strumarium (cocklebur) assessed as mortality at 6.3 g a.i/10 a; type: functional; settings: Xanthium strumarium, pre-emergence
Persicaria nodosa [21] = experiment: Post-emergence herbicidal activity against Persicaria nodosa assessed as growth inhibition at 25 g a.i/10 a applied 11 days after germination as foliar spray; type: functional, organism-based
Zea mays [22] = experiment: Pre-emergence phytotoxicity against Zea mays (maize) assessed as mortality at 1.6 g a.i/10 a; type: organism-based; settings: in vivo, other
[23] = (§3) Post-emergence phytotoxicity against Glycine max (soybean) assessed as mortality at 1.6 g a.i/10 a applied 11 days after germination as foliar spray; type: organism-based; settings: in vivo, 1.6 g a.i/10 a
Abutilon theophrasti [24] = experiment: Pre-emergence herbicidal activity against Abutilon theophrasti (velvetleaf) assessed as mortality at 6.3 g a.i/10 a; type: functional; settings: Abutilon theophrasti, pre-emergence
Echinochloa crus-galli [25] = experiment: Pre-emergence herbicidal activity against Echinochloa crus-galli (barnyard grass) assessed as growth inhibition at 25 g a.i/10 a; type: functional, organism-based
Xanthium strumarium [26] = experiment: Post-emergence herbicidal activity against Xanthium strumarium (cocklebur) assessed as mortality at 1.6 g a.i/10 a applied 11 days after germination as foliar spray; type: functional; settings: 264 h
Persicaria nodosa [27] = experiment: Pre-emergence herbicidal activity against Persicaria nodosa assessed as growth inhibition at 25 g a.i/10 a; type: functional, organism-based
Chenopodium album [28] = experiment: Post-emergence herbicidal activity against Chenopodium album assessed as growth inhibition at 25 g a.i/10 a applied 11 days after germination as foliar spray; type: functional, organism-based
Cyperus iria [29] = experiment: Pre-emergence herbicidal activity against Cyperus iria assessed as growth inhibition at 25 g a.i/10 a; type: functional, organism-based
[30] = (§4) Pre-emergence phytotoxicity against Glycine max (soybean) assessed as mortality at 6.3 g a.i/10 a; type: organism-based; settings: in vivo, 6.3 g a.i/10 a, read-out: mortality
Gossypium hirsutum [31] = experiment: as §1; type: organism-based; settings: in vivo, other, 264 h
Ipomoea lacunosa [32] = experiment: Post-emergence herbicidal activity against Ipomoea lacunosa assessed as mortality at 1.6 g a.i/10 a applied 11 days after germination as foliar spray; type: functional; settings: 264 h
Glycine max [33] = experiment: as §4; type: organism-based; settings: in vivo, other
Echinochloa crus-galli [34] = experiment: Post-emergence herbicidal activity against Echinochloa crus-galli (barnyard grass) assessed as mortality at 1.6 g a.i/10 a applied 11 days after germination as foliar spray; type: functional; settings: 264 h
Zea mays [35] = experiment: as §2; type: organism-based; settings: in vivo, other, 264 h
Glycine max [36] = experiment: as §3; type: organism-based; settings: in vivo, other, 264 h
Glycine max [37] = experiment: Post-emergence phytotoxicity against Glycine max (soybean) assessed as mortality at 6.3 g a.i/10 a applied 11 days after germination as foliar spray; type: organism-based; settings: in vivo, other, 264 h
Ipomoea lacunosa [38] = experiment: Post-emergence herbicidal activity against Ipomoea lacunosa assessed as mortality at 6.3 g a.i/10 a applied 11 days after germination as foliar spray; type: functional; settings: 264 h

Row | Structure (SMILES) | growth inhibition (GI) (Chenopodium album [1]) | Activity (Gossypium hirsutum [2]) | mortality at 16 g/ha (Abutilon theophrasti [3]) [%] | mortality at 264 h [4] [%] | growth inhibition (GI) (Cyperus iria [5]) | mortality at 63 g/ha (Abutilon theophrasti [6]) [%] | Activity (Gossypium hirsutum [7]) | mortality at 16 g/ha (Ipomoea lacunosa [8]) [%] | mortality at 63 g/ha (Echinochloa crus-galli [9]) [%] | growth inhibition (GI) (Digitaria sanguinalis [10]) | growth inhibition (GI) (Amaranthus retroflexus [11]) | growth inhibition (GI) (Amaranthus retroflexus [12]) | mortality at 264 h [13] [%] | growth inhibition (GI) (Digitaria sanguinalis [15]) | Activity (Glycine max [16]) | mortality at 63 g/ha (Echinochloa crus-galli [17]) [%] | mortality at 16 g/ha (Xanthium strumarium [18]) [%] | growth inhibition (GI) (Echinochloa crus-galli [19]) | growth inhibition (GI) (Persicaria nodosa [21]) | Activity (Zea mays [22]) | other results
1 | COc1cc(OC)nc(Oc2cccc(OC)c2C(=O)O)n1 | Active | Non-toxic | > 90 | > 90 | Active | > 90 | Toxic | < 5 | > 90 | Active | Active | Active | > 90 | Active | Non-toxic | > 90 | < 5 | Active | Active | Toxic | mortality at 63 g/ha (Ipomoea lacunosa [14]): < 5%; mortality at 63 g/ha (Xanthium strumarium [20]): < 5%; mortality at 264 h [23]: > 90%; mortality at 63 g/ha (Abutilon theophrasti [24]): > 90%; growth inhibition (GI) (Echinochloa crus-galli [25]): Active; mortality at 16 g/ha (Xanthium strumarium [26]): < 5%; growth inhibition (GI) (Persicaria nodosa [27]): Active; growth inhibition (GI) (Chenopodium album [28]): Active; growth inhibition (GI) (Cyperus iria [29]): Active; mortality [30]: > 90%
2 | CCc1cccc(Oc2nc(OC)cc(OC)n2)c1C(=O)O | Active | Non-toxic | > 90 |  | Active | > 90 | Toxic | < 5 | > 90 | Active | Active | Active | > 90 | Active | Non-toxic | > 90 | < 5 | Active | Active | Toxic | Activity (Gossypium hirsutum [31]): Toxic; mortality at 16 g/ha (Ipomoea lacunosa [32]): < 5%; mortality at 264 h [23]: > 90%; growth inhibition (GI) (Echinochloa crus-galli [25]): Active; mortality at 16 g/ha (Xanthium strumarium [26]): < 5%; growth inhibition (GI) (Persicaria nodosa [27]): Active; growth inhibition (GI) (Chenopodium album [28]): Active; growth inhibition (GI) (Cyperus iria [29]): Active; Activity (Glycine max [33]): Toxic
3 | COc1cc(OC)nc(Sc2cccc(SC)c2C(=O)O)n1 |  |  | > 90 | > 90 |  | > 90 | Non-toxic |  | < 5 |  |  |  |  |  |  |  |  |  |  |  | mortality at 16 g/ha (Echinochloa crus-galli [34]): < 5%; Activity (Zea mays [35]): Toxic; Activity (Glycine max [36]): Toxic; Activity (Glycine max [37]): Toxic; mortality at 63 g/ha (Ipomoea lacunosa [38]): > 90%
